Patent US5674894A, “Amidine derivatives useful as platelet aggregation inhibitors and vasodilators” (G.D. Searle & Co., priority 1995, dated 1997)
pIC50: −log10 of the molar value.

Tests used:
[1] = tested on: ADP-Induced Platelet Aggregation in Human PRP; experiment: In-Vitro Human Platelet Aggregation in PRP (ADP-induced); format: cell-based; details: 1 minute preincubation at 37° C., tested in duplicate, read-out: IC50, inhibition of ADP-induced platelet aggregation in human PRP
Experimental: (§1) The compounds of the above invention were tested in the in vitro human platelet aggregation assay in platelet rich plasma (PRP) and in the competitive solid phase binding assay against purified human fibrinogen and vitronectin receptors.
In-Vitro Human Platelet Aggregation in PRP:
Healthy male or female donors who have not taken any antiplatelet drugs for at least two weeks were fasted for 8 hours prior to drawing blood; then 30 mL whole blood was collected using a butterfly needle and 30 cc plastic syringe with 3 mL of 0.129M buffered sodium citrate (3.8%). The syringe was rotated carefully as blood was drawn to mix the citrate. Platelet-richplasma (PRP) was prepared by centrifugation at 250× g for 12 minutes at room temperature, allowing the centrifuge to coast to a stop without braking. The PRP was removed from the blood with a plastic pipette and placed in a plastic capped, 50 mL Corning conical sterile centrifuge tube which was held at room temperature. Platelet-poor plasma (PPP) was prepared by centrifuging the remaining blood at 2000× g for 15 minutes at room temperature allowing the centrifuge to coast to a stop without braking. The PRP was adjusted with PPP to a count of 2-3×10^8 platelets per mL. 450 μL of the PRP preparation and 50 μL of the compound to be tested or saline were preincubated for 1 minute at 37° C. in a Payton aggregometer (Payton Scientific, Inc., Buffalo, N.Y.). 50 μL of adenosine 5'-diphosphate (ADP) ([…]) was added to the cuvettes and the aggregation was monitored for 1 minute. All compounds are tested in duplicate. Results are calculated as follows: Percent of control=[(maximal OD minus initial OD of compound) divided by (maximal OD minus initial OD of control saline)]×100. The % inhibition=100-(percent of control). The compounds tested and their activity results at median inhibitory concentration (IC50) were as recorded in Table 1.

[2] = molecular target: purified human fibrinogen receptor (IIb^β 3) (Homo sapiens, UniProt P05106+P08514); experiment: Solid phase receptor assay, competitive binding to purified human fibrinogen receptor; details: biotinylated ligand 1 nM final, two hours, room temperature
Experimental: as §1
(§2) Solid Phase Receptor Assays
(§3) These assays were essentially the same as previously reported. The purified human vitronectin receptor(αv β3) or purified human fibrinogen receptor(IIb^β 3) were diluted from stock solutions to 1.0 μg/mL in Tris-buffered saline containing 1.0 mM Ca^++, Mg^++, and Mn^++, pH 7.4 (TBS^+++). The diluted receptor was immediately transferred to Linbro microtiter plates at 100 μL/well (100 ng receptor/well). The plates were sealed and incubated overnight at 4° C. to allow the receptor to bind to the wells. All remaining steps were at room temperature. The assay plates are emptied and 200 μL of 1% radioimmunoassay grade bovine serum albumin in TBS^+++ (TBS^+++ /BSA) were added to block exposed plastic surfaces. Following a 2 hour incubation, the assay plates were washed with TBS^+++ using a 96 well plate washer. Logarithmic serial dilution of the test compound and controls were made starting at a stock concentration of 2 mM and using 2 nM biotinylated vitronectin in TBS^+++ /BSA as the diluent. This premixing of labeled ligand with test (or control) ligand, and subsequent transfer of 50 μL aliquots to the assay plate was carried out with a CETUS Propette robot; the final concentration of the labeled ligand was 1 nM and the highest concentration of test compound was 1.0×10^-4M. The competition occurred for two hours after which all wells were washed with a plate washer as before. Affinity purified horseradish peroxidase labeled goat anti-biotin antibody was diluted 1:3000 in TBS^+++ /BSA and 125 μL were added to each well. After 30 minutes, the plates were washed and incubated with o-phenylendiamine/H2 O2 substrate in 100 mM/L Citrate buffer, pH 5.0. The plate was read with a microtiter plate reader at a wavelength of 450 nm and when the maximum-binding control wells reached an absorbance of about 1.0, the final A450 were recorded for analysis. The data were analyzed using a macro written for use with the EXCEL™ spreadsheet program. The mean, standard deviation, and % coefficient variation were determined for duplicate concentrations. The mean A450 values were normalized to the mean of four maximum-binding controls (no competitor added). The normalized values were subjected to a four parameter curve fit algorithm, plotted on a semi-log scale, and the computed IC50 and corresponding correlation coefficient was reported. GRGDSP, a peptide fragment of fibrinogen, was included on each plate as a positive control.

[3] = molecular target: purified human vitronectin receptor (αv β3) (Homo sapiens, UniProt P05106+P06756); experiment: Solid phase receptor assay, competitive binding to purified human vitronectin receptor; details: biotinylated vitronectin 1 nM final, two hours, highest concentration 1.0×10^-4M, read-out: IC50 Vitronetin receptor
Experimental: as §1, §2, §3

SMILES: N=C(N)c1ccc(NC(=O)CCC(=O)NC(CC(=O)O)C(=O)O[C@H]2CO[C@H]3[C@@H]2OC[C@H]3O)cc1 (stereo partly drawn) [Example 8]
- pIC50 [1]: 6.52
- pIC50 [2]: 9.15
- pIC50 [3]: < 4.00

SMILES: N=C(N)c1ccc(NC(=O)CCC(=O)NC(CC(=O)O)C(=O)O[C@H]2CO[C@H]3[C@@H]2OC[C@H]3O[N+](=O)[O-])cc1 (stereo partly drawn) [Example 6]
- pIC50 [1]: 6.40
- pIC50 [2]: 9.60
- pIC50 [3]: < 4.00

SMILES: N=C(N)c1ccc(CCCCC(=O)NC(CC(=O)O)C(=O)O[C@H]2CO[C@H]3[C@@H]2OC[C@H]3O[N+](=O)[O-])cc1 (stereo partly drawn) [Example 3]
- pIC50 [1]: 5.70
- pIC50 [2]: 8.51
- pIC50 [3]: < 4.00

SMILES: N=C(N)c1ccc(CCCCC(=O)NC(CC(=O)O)C(=O)OC2COC3C(O)COC23)cc1 (stereo not drawn) [Example 5]
- pIC50 [1]: 5.70
- pIC50 [2]: 8.89
- pIC50 [3]: < 4.00
